Experimental data as given in patent US11326165B1, “Methods and compositions for modulating splicing” (SKYHAWK THERAPEUTICS, INC., priority 2017, dated 2022).

Legend:
[1] = test system: A673 cells; assay: Cell viability and proliferation, A673 cells (crystal violet); format: cell-based; details: cell proliferation IC50 in NHDF cells over A673 cells, 72 h
Protocol: Small molecule splicing modulators were tested in a dose-response assay using A673 cells and NHDF cells.
A673 cells or NHDF cells were first plated in 96-well plastic tissue culture plates (10,000 cells per well). The cells were treated with vehicle alone (DMSO), or increasing concentrations of SMSM compounds for 72 h. Following treatment, cell proliferation was determined using a crystal violet assay. The relative cell proliferation at each concentration was determined.

[2] = test system: A375 xenografts; assay: A375 xenografts in nude mice, tumor growth inhibition; format: in vivo; details: A-375 xenograft (FIGS. 21A-B)
Protocol: (§1) Studies were performed to assess the effects of in vivo SMSM treatment on glioblastoma, breast, pancreatic, prostate, melanoma, lymphoma and Ewing sarcoma tumors. Studies were also performed to assess the effects of in vivo SMSM treatment on mRNA levels. Immunocompromised nude mice with pre-existing glioblastoma, breast, pancreatic, prostate, melanoma, lymphoma and Ewing sarcoma xenografts were treated with vehicle or SMSMs. Tumor tissues from subcutaneous xenografts were broken into a powder using a BioPulverizer (Biospec Products, Inc.). After SMSM treatment, mRNA was isolated from the xenografts and was analyzed by qRT-PCR.
(§2) Tumor size was measured 2 times per week in two dimensions using a caliper. Studies were terminated when the tumor size in the vehicle treated group reached 2,000 mm^3. Each mouse was bled at 2 hrs after the last dose and at least 50 μl of plasma was collected from each mouse. All of the collected plasma samples and retainer dosing solutions for each dose level were used for bioanalytical measurements. All tumors were also collected and weighed. One necrosis-free tumor fragment of approximately 50 mg was taken from each tumor and flash-frozen for RNA isolation. The remaining tumor was flash frozen for PK analysis.
The effects of in vivo SMSM treatments on pre-existing subcutaneous glioblastoma, breast, pancreatic, prostate, melanoma, lymphoma and Ewing sarcoma xenografts were assessed. For these in vivo experiments, 1×10^6Raji, A375, A673, MDA-MB-231, BxPC-3, PC-3 or U87 (cells re-suspended in 100 μl PBS were subcutaneously injected into the flanks of nude mice. When the tumor reached approximately 100 mm^3 (volume=(¾)(π)(length/2)(width/2)^2), the treatments indicated in the tables below were initiated.

[3] = test system: A673 xenografts; assay: A673 xenografts in nude mice, tumor growth inhibition; format: in vivo; details: A673 xenograft (FIGS. 20A-B)
Protocol: Dose range and time course studies comparing anti-neoplastic effects of SMSM−167 and SMSM−151 against vehicle were conducted.
Female NCrNu mice were used. Age range of enrolment was 7-10 weeks. A total of 75 animals were for the studies.
The A673 tumor cell line was maintained in vitro as a monolayer culture. […] The cells growing in an exponential growth phase were harvested and counted for tumor inoculation.
Each mouse were inoculated into a right flank with the single cell suspension of 95% viable tumor cells (5×10^6 cells/mouse) in serum-free RPMI 1640 Media for tumor development. Treatments were administered when mean tumor size reached approximately 75 mm^3.
Before commencement of treatment, all animals were weighed and assigned to treatment groups using a randomization procedure. Mice were randomized into groups based upon their tumor sizes to ensure that each group had approximately the same mean tumor size and range of tumor size.
After inoculation, the animals were checked daily for morbidity and mortality. At the time of routine monitoring, the animals were checked for any effects of tumor growth on normal behavior such as mobility, food and water consumption, body weight gain/loss, eye/hair matting and any other abnormal effects. Deaths and observed clinical signs were recorded.
Body weight were measured prior to tumor inoculation and prior to the treatment administration and then daily. Tumor size were measured 2-3 times per week in two dimensions using a caliper, and the volume were expressed in mm^3 using the formula: V=0.5×a×b^2 where a and b are the long and short diameters of the tumor, respectively.
Studies were terminated when the tumor size in the vehicle treated group reached 2,000 mm^3. Each mouse was bled at 2 hrs after the last dose and at least 50 μl of plasma were collected from each mouse. All of the collected plasma samples and retainer dosing solutions for each dose level were used for bioanalytical measurements. All tumors were also collected and weighed. One necrosis-free tumor fragment of approximately 50 mg was taken from each tumor and flash-frozen for RNA isolation. The remaining tumor was flash frozen for PK analysis.
as §1, §2
The effects of in vivo SMSM treatments on pre-existing subcutaneous glioblastoma, breast, pancreatic, prostate, melanoma, lymphoma and Ewing sarcoma xenografts were assessed. For these in vivo experiments, 1×10^6Raji, A375, A673, MDA-MB-231, BxPC-3, PC-3 or U87 (cells re-suspended in 100 μl PBS were subcutaneously injected into the flanks of nude mice. When the tumor reached approximately 100 mm^3 (volume=(¾)(π)(length/2)(width/2)^2), the treatments indicated in the tables below were initiated. […]

[4] = Maximum tolerable dose study (survival, body weight); format: in vivo; details: mice
Protocol: Survival of mice after administration of SMSMs after 10 or 11 days was assessed.
Tolerance of the drug treatments was determined by measuring the weight of the mice during the period of drug administration. Body weight was measured prior to tumor inoculation and prior to the treatment administration and then daily. The changes in the final weight of the mice for the SMSM treatments were determined.

CN(c1ccc(-c2ccc(-c3cn[nH]c3)cc2O)nn1)[C@H]1C[C@]2(C)CC[C@](C)(C1)N2 [compound 151, 2-(6-(((1R,3s,5S)-1,5-dimethyl-8-azabicyclo[3.2.1]octan-3-yl)(methyl)ami-no)pyridazin-3-yl)-5-(1H-pyrazol-4-yl)phenol]
Ratio NHDF/A673 IC50 [1]: >350
Tumor Growth Inhibition (TGI) (%) ([2]; 3 mg/kg i.p. QD *21 days, D4): 15.21%
Tumor Growth Inhibition (TGI) (%) ([2]; 3 mg/kg i.p. QD *21 days, D7): 18.86%
Tumor Growth Inhibition (TGI) (%) ([2]; 3 mg/kg i.p. QD *21 days, D11): 27.48%
Tumor Growth Inhibition (TGI) (%) ([2]; 3 mg/kg i.p. QD *21 days, D14): 41.30%
Tumor Growth Inhibition (TGI) (%) ([2]; 3 mg/kg i.p. QD *21 days, D18): 62.06%
Tumor Growth Inhibition (TGI) (%) ([2]; 3 mg/kg i.p. QD *21 days, D21): 55.77%
Tumor Growth Inhibition (TGI) (%) ([2]; 10 mg/kg p.o. BID *21 days, D4): 22.49%
Tumor Growth Inhibition (TGI) (%) ([2]; 10 mg/kg p.o. BID *21 days, D7): 28.98%
Tumor Growth Inhibition (TGI) (%) ([2]; 10 mg/kg p.o. BID *21 days, D11): 48.28%
Tumor Growth Inhibition (TGI) (%) ([2]; 10 mg/kg p.o. BID *21 days, D14): 49.06%
Tumor Growth Inhibition (TGI) (%) ([2]; 10 mg/kg p.o. BID *21 days, D18): 58.41%
Tumor Growth Inhibition (TGI) (%) ([2]; 10 mg/kg p.o. BID *21 days, D21): 50.32%
Tumor Growth Inhibition (TGI) (%) ([2]; SMSM-151 group 1.5 mg/kg i.p. BID *21 days, D4): 21.81%
Tumor Growth Inhibition (TGI) (%) ([2]; SMSM-151 group 1.5 mg/kg i.p. BID *21 days, D7): 13.08%
Tumor Growth Inhibition (TGI) (%) ([2]; SMSM-151 group 1.5 mg/kg i.p. BID *21 days, D11): 24.17%
Tumor Growth Inhibition (TGI) (%) ([2]; SMSM-151 group 1.5 mg/kg i.p. BID *21 days, D14): 34.70%
Tumor Growth Inhibition (TGI) (%) ([2]; SMSM-151 group 1.5 mg/kg i.p. BID *21 days, D18): 39.27%
Tumor Growth Inhibition (TGI) (%) ([2]; SMSM-151 group 1.5 mg/kg i.p. BID *21 days, D21): 36.89%
Tumor Growth Inhibition (TGI) (%) ([3]; 10 mg/kg BID p.o., Day 3): 28.03%
Tumor Growth Inhibition (TGI) (%) ([3]; 10 mg/kg BID p.o., Day 6): 34.29%
Tumor Growth Inhibition (TGI) (%) ([3]; 10 mg/kg BID p.o., Day 10): 22.09%
Tumor Growth Inhibition (TGI) (%) ([3]; 10 mg/kg BID p.o., Day 13): 30.12%
Tumor Growth Inhibition (TGI) (%) ([3]; 20 mg/kg BID p.o., Day 3): 37.61%
Tumor Growth Inhibition (TGI) (%) ([3]; 20 mg/kg BID p.o., Day 6): 45.97%
Tumor Growth Inhibition (TGI) (%) ([3]; 20 mg/kg BID p.o., Day 10): 55.24%
Tumor Growth Inhibition (TGI) (%) ([3]; 20 mg/kg BID p.o., Day 13): 71.29%
Tumor Growth Inhibition (TGI) (%) ([3]; 30 mg/kg QD p.o., Day 3): 23.90%
Tumor Growth Inhibition (TGI) (%) ([3]; 30 mg/kg QD p.o., Day 6): 34.28%
Tumor Growth Inhibition (TGI) (%) ([3]; 30 mg/kg QD p.o., Day 10): 17.11%
Tumor Growth Inhibition (TGI) (%) ([3]; 30 mg/kg QD p.o., Day 13): 23.52%
Outcome ([4]; IP, 1 mg/kg, QDx11): All survived
Outcome ([4]; PO, 10 mg/kg, BIDx11): All survived
Outcome ([4]; PO, 10 mg/kg, QDx11): All survived
